Data from patent US20240018129A1, “COMPOUNDS AS PU. 1 INHIBITORS” (PEKING UNIVERSITY, priority 2020, published 2024).

Tests used:
[1] = molecular target: T1, PU.1 (Mus musculus, UniProt P17433); test: q-PCR of TIM-3 expression in Blast-PU.1 cells (PU.1 inhibition potency); format: cell-based; details: 10 μM, Blast-PU.1 cells, 24 h treatment, q-PCR
T1 construct: EGFP (from 'PU.1-EGFP-vector'); expressed in transfected cells
Excerpt: An acute T cell lymphoblastic leukemia (T-ALL) disease model was used to evaluate the effect of the newly synthesized compounds on PU.1 inhibition. Pten, a famous tumor suppressor gene, was […] deleted in mouse hematopoietic stem cells and their differentiated progeny, and this would eventually lead to a progressive T-ALL in about two months from born. It is believed that immune checkpoint T cell immunoglobulin mucin-3 (TIM-3), a surface marker for the isolation of pure leukemia-initiating cells (LICs), is transcriptionally regulated by transcription factor PU.1 in the Pten-null T-ALL model. Therefore, the expression level of TIM-3 was detected and quantified to characterize the inhibition potency of the compounds after 24 h treatment of graded concentrations of compounds. Blast cells were transfected with either PU.1-EGFP-vector or EGFP-vector to yield stable cell lines blast-PU.1 and blast-EGFP, respectively. These cell lines were used for compound testing in vitro. Compounds DB1976 and DB2115 were tested as well for comparison. Blast-PU.1 and blast-EGFP are the ideal cell lines for compounds testing in vitro, since they are T-ALL blast cells with […] TIM-3 and PU.1 expression level.

[2] = system: skin, liver and lung fibrosis; details: Wohlfahrt et al., Nature 2019; cited from earlier work
[3] = system: NASH; details: in vivo; Liu et al., J Hepatol 2020; cited from earlier work
[4] = system: HFD/CCL4-induced NASH and liver fibrosis; test: High-fat diet (HFD) combined with CCl4 (lower dose)-induced NASH model; format: in vivo, mouse
Excerpt: (§1) Methods: To evaluate the potential therapeutic effects of compound I-1 on liver disorders, including liver fat steatosis and accumulation, nonalcoholic fatty liver disease (NAFLD), nonalcoholic steatosis hepatitis (NASH), and liver fibrosis, three mice models (C57BL/6, male, 8 weeks old) were used. (I) NASH diet (Code.TD.160785, ENVIGO, USA)-induced NASH model: All mice were fed with NASH diet for 10 weeks. Mice were then randomly distributed into three groups, and each group was assigned to be injected daily with vehicle, compound I-1 (2.5mpk or 5mpk, i.p.), or DB1976 (2.5mpk, i.p, as a positive control) for another 6 weeks on continuous NASH diet. A group with normal regular diet was treated with vehicle as health control. (II) High-fat diet (HFD) combinate with CCl4 (lower dose)—induced NASH model. Mice were fed with normal regular diet or HFD (kcal fat 60%—D12492, research diets) for 10 weeks, then the HFD mice were divided into two groups randomly based on the rule of minimum weight differences. Each group was assigned to be injected with CCl4 (25% v/v in olive oil, 0.5 mL/kg body weight) or pure olive oil (i.p.) twice a week for 4 weeks. Compound 1-1 or vehicle (saline) were injected (i.p.) once daily for 4 weeks at the same time with CCl4 under continuous HFD. (III) CCl4 (higher dose)—induced liver fibrosis model. Liver fibrosis was induced by CCl4 injection (20% v/v in olive oil, 10 mL/kg body weight) twice a week for 6 weeks, compound I-1 or vehicle are also injected (i.p.) once daily for 6 weeks at the same time with CCl4 application. Ail the mice in the above-mentioned three models were observed daily. After the last day of treatment of all the models, mice were fasted overnight and euthanized. Serum was collected after centrifuging of the whole blood at 4 degrees, and blood biochemistry parameters were tested through automatic biochemical instrument (BS-240VET, Mindray). Part of liver tissues were fixed with paraformaldehyde, embedded with paraffin, and then sliced for H&E or Sirius red staining to check pathological features, and NAFLD scores. Kleiner, D. E. et al. Hepatology 41, 1313-1321, doi:10.1002/hep.20701 (2005). Part of liver tissues were used fresh, embedded in optimum cutting temperature compound, and sectioned. The sections were stained with 0.5% oil red 0 according to standard procedures after fixed in 4% paraformaldehyde in PBS. Another part of liver tissues were collected and stored in −80° C. after liquid nitrogen quick-freezing, RNA. isolation (Code.R6934, OMEGA., USA), first cDNA reverse (Code.AT341, TransGen, China), SYBR mix (Code.AQ601, TransGen, China) for Q-PCR (LightCycler®96, Roche) to verify genes mRNA level, such as, fibrosis-related genes, Col1a1 and Col1a2; inflammation-related genes, IL-6 and IL-1β.

[5] = molecular target: PU.1 (Homo sapiens, UniProt P17947); details: cited from earlier work
[6] = system: bleomycin-induced skin fibrosis; test: bleomycin-induced skin fibrosis, preventive and therapeutic models; format: in vivo, mouse
Protocol: Methods: To evaluate the preventive and therapeutic effects of compound I-1 on skin fibrosis, bleomycin was used to establish two animal models of skin fibrosis with different drug intervention (6-8 weeks, C57BL/6, male). Skin fibrosis was induced by local injection of bleomycin (0.5 mg/mL, 0.1 ml/mouse) in a skin defined area (˜1 cm^2), where the hair was removed in advance, at the upper back every other day. Subcutaneous saline injections served as controls. (I) Preventive model of bleomycin-induced skin fibrosis: Compound I-1, positive control DB1976, or vehicle (saline) were injected i.p. simultaneously with bleomycin for 4 weeks (FIG. 3a). (II) Therapeutic model of bleomycin-induced skin fibrosis: Mice were pre-charged with bleomycin for 3 weeks to induce skin fibrosis, then treated with compound I-1, positive control DB1976, or vehicle (saline) for another 3 weeks, total time is 6 weeks after the first bleomycin treatment (FIG. 30. After the last day of treatment of both models, mice were fasted overnight and euthanized. Part of the skin was fixed with paraformaldehyde after fully flat on a foil, embedded with paraffin, and then sliced for H&E, Sirius red and Masson staining to check pathological features. The epidermal thickness of each sample was calculated quantitatively with image J. Another part of skin was collected and stored at −80° C. after liquid nitrogen quick-freezing, RNA isolation (Code.R6934, OMEGA, USA), first cDNA reverse (Code.AT341, TransGen, China), SYBR mix (Code.AQ601, TransGen, China) for Q-PCR (LightCycler® 96, Roche) to verify several fibrosis-related genes mRNA level, such as, Col1a1 and Col1a2.

[7] = system: bleomycin-induced pulmonary fibrosis; test: bleomycin-induced pulmonary fibrosis, preventive and therapeutic models; format: in vivo, mouse; details: preventive model, 5mpk i.p. for 4 weeks after single bleomycin injection
Protocol: Methods: To evaluate the preventive and therapeutic effects of compound I-1 on pulmonary fibrosis, bleomycin was used to establish two animal models of pulmonary fibrosis with different drug intervention (6-8 weeks, C57BL/6, male). Bleomycin (0.025U, Code.D11063, OKA, China) was injected by a single intratracheal application. Equal volumes of sterilized saline served as a control. (I) Preventive model of bleomycin-induced pulmonary fibrosis. Compounds compound I-1, positive control DB1976, or vehicle (saline) were treated (injected intraperitoneally, i.p.) immediately after single bleomycin injection for 4 weeks (FIG. 4a). (II) Therapeutic model of bleomycin-induced pulmonary fibrosis. Mice were pre-charged with bleomycin for 11 days to induced pulmonary fibrosis, then treated with compounds compound I-1, positive control DB1976, or vehicle (saline) for 17 days, total time is 4 weeks after bleomycin treatment (FIG. 4h). After the last day of treatment of both models, mice were fasted overnight and euthanized. A part of lung was fixed with paraformaldehyde, embedded with paraffin, and then sliced for H&E and Sirius red staining to check pathological features, and Ashcroft scores. Hubner, R. H. et al. Biotechniques 44, 507-511, 514-507, doi:10.2144/000112729 (2008). Another part of lung were collected and stored in −80° C. after liquid nitrogen quick-freezing, RNA isolation (Code.R6934, OMEGA, USA), first cDNA reverse (Code.AT341, TransGen, China), SYBR mix (Code.AQ601, TransGen, China) for Q-PCR (LightCycle96, Roche) to verify several fibrosis-related genes mRNA level, such as, Col1a1 and Col1a2.

[8] = system: NASH diet-induced NASH; test: NASH diet-induced NASH model; format: in vivo, mouse; details: 2.5mpk i.p. daily for 6 weeks
Excerpt: as §1

[9] = system: other ETS family numbers; details: cited from earlier work
[10] = system: T-ALL blast cells and TIM-3-high LICs; test: Pten-null T-ALL mouse model, compound I-1 and/or rapamycin treatment
Protocol: To generate a Pten-null T-ALL mouse model, Pten was 40% deleted in mouse fetal liver hematopoietic stem cells (HSCs), followed by PI3K-AKT pathway activation, hematopoietic disorder and T-ALL development. In the T-ALL crisis stage, T-ALL blasts and LICs would infiltrate mouse hematopoietic organs and non-hematopoietic organs.
After treatment, hematopoietic and non-hematopoietic organ morphology of the mice was analyzed using hematoxylin-eosin (H&E) staining.

[11] = preventive model, 5mpk i.p., 4 weeks

For `N=C(N)c1ccc2nc(-c3ccc(NC(=O)[C@H]4CCCN4C(=O)[C@H]4CCCN4C(=O)c4ccc(-c5nc6ccc(C(=N)N)cc6[nH]5)cc4)cc3)[nH]c2c1` [Compound I-2, (R)-1-((4-(6-carbamimidoyl-1H-benzo[d]imidazol-2-yl)benzoyl)-D-prolyl)-N-(4-(6-carbamimidoyl-1H-benzo[d]imidazol-2-yl)phenyl)pyrrolidine-2-carboxamide], the “inhibition of TIM-3 expression” value [1] was “no obvious inhibition”.
For `N=C(N)c1ccc2nc(-c3ccc(NC(=O)[C@@H]4CCCN4C(=O)[C@H]4CCCN4C(=O)c4ccc(-c5nc6ccc(C(=N)N)cc6[nH]5)cc4)cc3)[nH]c2c1` [Compound I-3, (S)-1-((4-(6-carbamimidoyl-1H-benzo[d]imidazol-2-yl)benzoyl)-D-prolyl)-N-(4-(6-carbamimidoyl-1H-benzo[d]imidazol-2-yl)phenyl)pyrrolidine-2-carboxamide], the “inhibition of TIM-3 expression” value [1] was “no obvious inhibition”.
For `N=C(N)c1ccc2nc(-c3ccc(-c4nc5ccc(C(=N)N)cc5[nH]4)[se]3)[nH]c2c1` [DB1976, reference compound], the “skin, liver and lung fibrosis” value [2] is given as “alleviated”, the “effects on NASH progress (liver steatosis, inflammation, fibrosis, glucose homeostasis)” value [3] is given as “beneficial effects” and the “serum triglyceride (TG) and total-cholesterol (TC)” value ([4]; fasting serum, i.p. once daily for 4 weeks) is given as “reduced”. The “body weight, gWAT and iWAT weight radio increased by HFD/CCL4” value ([4]; i.p. once daily for 4 weeks with CCl4 under HFD) was “reversed”, the “collagen deposition (sirius red staining) and liver mRNA level of Col1a1 and Col1a2” value ([4]; mouse, in vivo) was “reduced” and the “liver fibrosis induced by HFD/CCL4 application” value ([4]; mouse, in vivo) was “significantly alleviated”. The “potency as PU.1 inhibitor” value [5] was “limited potency”, the skin fibrosis progress ([6]; preventive model, 5mpk i.p. simultaneously with bleomycin for 4 weeks, vs bleomycin/vehicle) was “significantly prevented” and the collagen deposition [6, 11] was “reducing”. The epidermal thickness [6, 11] was “reducing”, the “mRNA level of Col1a1 and Col1a2” value ([6]; preventive model, 5mpk i.p., 4 weeks, skin) was “decreasing” and the bleomycin-induced skin fibrosis ([6]; therapeutic model, 3 weeks bleomycin then 3 weeks treatment, 5mpk) was “significantly alleviated and reversed”. For the same compound, the “pulmonary fibrosis progress (staining, Ashcroft scores, collagen deposition, Col1a1, Col1a2 mRNA)” value [7] was “significantly prevented”, the “metabolic disturbance by NASH diet (body weight, liver fat, ALT, LDL-C, TC, IL-6, IL-1β, Col1a1, Col1a2)” value [8] was “potently alleviated” and the “activity on other ETS family numbers” value [9] was “inhibitory activity”.
In the case of `CO[C@H]1C[C@@H]2CC[C@@H](C)[C@@](O)(O2)C(=O)C(=O)N2CCCC[C@H]2C(=O)O[C@H]([C@H](C)C[C@@H]2CC[C@@H](O)[C@H](OC)C2)CC(=O)[C@H](C)/C=C(\C)[C@@H](O)[C@@H](OC)C(=O)[C@H](C)C[C@H](C)/C=C/C=C/C=C/1C` [rapamycin, reference compound], the “proportion of blasts in bone marrow” value ([10]; after two days' treatment at blast crisis stage, without treatment 96.4%) is reported as 13.2% and the “TIM-3 high LICs proportion” value ([10]; after two days' treatment, bone marrow, without treatment 33.5%) is reported as 22.2%.
